“Also recorded” adds a separate entry of the source.

The test system of one data set is RSV infected A549 cells. The experiment in a line: TUNEL assay for visualization of apoptosis in RSV infected A549 cells. In kind it is cell-based, human. The note with it: DIM at 210 and 700 nM; 12, 18, and 24 hours post infection; data not shown. The method, then: Cell Culture—A549 cells, a tumor cell line with properties of normal airway epithelial cells, were obtained from American Type Culture Collection (ATCC, Manassas, Va.) and incubated at 37° C. in 5% CO2. The cells were cultured in Eagle's minimum essential medium (MEM, Invitrogen) supplemented with 10% fetal bovine serum (HyClone, Logan, Utah) and […] gentamicin. The A549 cells were subcultured by harvesting in 0.12% trypsin no more than 20 times from stock originally designated at pass 70. To minimize effects of exogenous growth factors or cytokines in this system, the supplemented serum concentration was reduced to 0.5% 24 h prior to and during all experiments with RSV infection.
RSV Virus—RSV, strain A2, was obtained from Advanced Biotechnologies Inc. (Columbia, Md.) and was used directly as supplied for all experiments. The viral preparation was tested to have a TCID50 titer of ˜1×10^9 in Hep-2 cells at 7 days. Sterile vials of the RSV preparation were supplied in MEM supplemented with 10% fetal calf serum, stored at −135° C. and rapidly thawed at 37° C. immediately prior to use. […]
Apotosis in RSV infected A549 cells cultured with and without DIM was further studied using the TUNEL assay for visualization of apoptosis. […] To remove unincorporated dUTP, slides were washed three times 15 min each with 2×SSC and three times with PBS, and then viewed in a fluorescence microscope. […]

In the next data set the test system is RSV Long strain. The experiment in a line: Pulmonary viral assay (pfu in lung homogenate) in RSV infected BALB/c mice. In kind it is in vivo. Here is the method:
(§1) The Following Experimental BALB/c Groups and Treatment Protocol Using DIM were Studied: • 1. RSV infected positive control group, infected with RSV and injected subcutaneously (SC) once daily with DMSO/Phosphate Buffered Saline (PBS) vehicle. • 2. RSV infected, Low dose Parenteral DIM group (15 mg/kg/day), injected SC once daily with DIM suspension • 3. RSV infected, High dose DIM Group (150 mg/kg/day), injected SC once daily with DIM suspension • 4. RSV infected, orally treated DIM group (250 mg/kg/day from absorption enhanced DIM [Example 6.1]), added to powdered feed • 5. Uninfected negative control group, nasally administered vehicle only, and injected subcutaneously (SC) once daily with DMSO/PBS vehicle
Animals, cells, and viruses. Pathogen-free 8-10 week old female BALB/c mice, weighing between 16 and 20 g, were purchased from Charles River Laboratories. All mice were housed in cages covered with barrier filters and are fed mouse chow and water ad libitum. HeLa cells are maintained in Eagle's minimal essential medium supplemented with glutamine, gentamicin, penicillin G, and 10% fetal bovine serum.
RSV stock. RSV Long strain was grown on HEp-2 monolayers (American Type Culture Collection, Manassas, Va.). The extracellular media containing liberated progeny virus was collected at about 70 hr. The virus was purified and concentrated by precipitation with polyethylene glycol (MW 8,000) and sucrose gradient centrifugation. The final preparation had infectious titer in the range of 10^8-10^9 pfu/ml and was stored frozen at −80° C. in small portions. All infectious viral titers (plaque forming units [pfu]) were determined by agarose plaque assay on HEp-2 monolayers with neutral red staining using standard procedures. Another suitable strain is the A2 strain of RSV (American Type Culture Collection).
Mouse treatment, infection and harvest. […]
Pulmonary viral assay and clinical measurements. […] Respiratory rates (breaths per min) were determined by counting over a period of 2-3 mins. […]

Another data set concerns Caspase 3. In words: Ac-DEVD-AFC caspase-3 protease assay of lung homogenate of RSV infected BALB/c mice. In kind it is in vivo. As to conditions: oral and subcutaneous DIM, FIG. 5A. The method, then: as §1
Mouse treatment, infection and harvest. Intranasal application of RSV in BALB/c mice followed an established procedure (Bitko et al., 2005, Nat Med. 11(1):50-5) and causes predictable pulmonary disease and inflammation. For RSV infection, RSV stock was diluted such that each mouse was given 10^7 pfu (plaque forming unit) of the virus intranasally. […]

For data set [1] the following is noted: lung tissue; cited from earlier work.

Regarding `c1ccc2c(Cc3c[nH]c4ccccc34)c[nH]c2c1` [DIM, 3,3′-diindolylmethane], the “apoptosis in TUNEL stained photomicrographs” value in the data set on RSV infected A549 cells is “clearly showed earlier apoptosis”. Further, the “RSV growth in the lung / viral counts in lung tissue” value in the data set with RSV Long strain (DIM administered orally or parenterally, BALB/c mice) is recorded as “inhibit RSV growth in the lung; also recorded: significant reduction in viral counts in lung tissue”. Also, the pulmonary viral count result in the data set with RSV Long strain (SC administered DIM, 10 days pi, vs vehicle treated, RSV-infected controls, FIG. 4) was “significantly reduced pulmonary viral count”. In addition, the “intrapulmonary replication of nasally administered RSV virus” value in the data set with RSV Long strain (oral 250 mg/kg/day and SC 15 and 150 mg/kg/day, 6 days post infection (pi), vs vehicle treated RSV-infected controls, FIG. 4) is listed as “significantly reduced the intrapulmonary replication”. Moreover, in the data set with Caspase 3, the “apoptosis in mouse lung homogenate: activated Caspase 3” value is “increased apoptosis in lung tissue homogenate; also recorded: increased levels of apoptosis-specific, activated Caspase 3”. In addition, the tissue distribution entry in data set [1] is “concentrated in lung tissue”.

The record behind these values is patent US8552052B2, “Use of diindolylmethane-related indoles for the treatment and prevention of respiratory syncytial virus associated conditions” (BioResponse, L.L.C., priority 2004, dated 2013).
